Results as given in ChEMBL document CHEMBL1250514, “Fragment-based drug discovery applied to Hsp90. Discovery of two lead series with high ligand efficiency” (J Med Chem, 2010).

Target: Heat shock protein HSP90 (Homo sapiens, UniProt P07900+P08238)
Description: Binding affinity to human N-terminal ATPase domain of Hsp90 by isothermal titration calorimetry

Kd [µM]	SMILES
2	Nc1nc(Cl)cc(-c2ccccc2)n1
0.068	COc1cccc(OC)c1-c1cc(Cl)nc(N)n1
0.036	COc1cccc(Cl)c1-c1cc(Cl)nc(N)n1
0.083	Nc1nc(Cl)cc(-c2ccccc2Cl)n1
0.012	Nc1nc(Cl)cc(-c2ccc(Cl)cc2Cl)n1
0.048	COc1ccc(Cl)c(-c2cc(Cl)nc(N)n2)c1
0.0063	COc1cc(-c2cc(Cl)nc(N)n2)c(Cl)cc1Cl
0.028	COc1ccc(-c2cc(Cl)nc(N)n2)c(Cl)c1
1130	CCN(CC)C(=O)c1ccc(O)c(Cl)c1
45	CCc1cc(C(=O)N(CC)CC)ccc1O
7	CCN(CC)C(=O)c1ccc(O)c(C(C)C)c1
8.6	CCN(CC)C(=O)c1ccc(O)c(C(C)(C)C)c1
51	CCN(CC)C(=O)c1cc(C(C)C)ccc1O
134	CCN(CC)C(=O)c1cc(C(C)(C)C)ccc1O
2.3	CC(C)(C)c1cc(C(=O)N2CCC(O)CC2)ccc1O
0.4	CC(C)c1cc(C(=O)N2CCOCC2)ccc1O
0.011	CC(C)c1cc(C(=O)N2CCOCC2)c(O)cc1O
2.5	CC(=O)N1CCN(C(=O)c2ccc(O)c(C(C)(C)C)c2)CC1
0.25	CC(C)(C)c1cc(C(=O)N2CCN(c3ccccn3)CC2)ccc1O
2.5	CC(C)(C)c1cc(C(=O)N2CCc3ccccc3C2)ccc1O
0.068	CC(C)c1cc(C(=O)N2Cc3ccccc3C2)ccc1O
0.128	CC(C)c1cc(C(=O)N2CCc3ccccc3C2)ccc1O
